Measurements taken from patent publication US20240124491A1, “METHODS AND COMPOUNDS FOR TREATING FRIEDREICH'S ATAXIA” (Design Therapeutics, Inc., priority 2021, published 2024).

These molecules were tested on human FXN (assay: EC50 assay: FXN mRNA expression by qRT-PCR in GM15850 cells after 48 hrs compound treatment). Conditions: Homo sapiens, 48 hrs incubation, hFXN expression normalized to hGAPDH (qRT-PCR), read-out: EC50 WT (nM, 48 hr).
Format: cell-based
Procedure: Cell culture: Cells were cultured in RPMI1640 medium+15% FBS. Cells were maintained at a density between 2e5/mL and 1e6/mL. Cells were centrifuged, resuspended in fresh medium, counted and plated at 150,000 cells per well in 100 uL in a non-coated, flat bottom tissue culture plate.
Compound treatment: 10 mM stock solution of FA GeneTAC was diluted 1:10 in DMSO followed by a 1:100 dilution in growth medium. Working solution was then further diluted to 10× desired final concentration of 150 nM. Compound was then diluted at a 1:3 ratio into growth medium containing 0.01% DMSO. 5-point, 3-fold dose response curve was generated. 11 μL of 1OX compound was added to wells containing 100 μL cell suspension of GM15850. 11 μL growth medium containing 0.01% DMSO was added to all wells not treated with FA GeneTAC. Cells were allowed to incubate for 48 hrs prior to cell lysis using guanidine isothiocyanate solution.
RNA isolation: Total RNA was isolated and purified in 384-well column filter plates using chaotropic salt.
qRT-PCR: qRT-PCR reactions were assembled using AgPath-ID reagents (Thermo Fisher) using 6 uL mastermix and 4 μL RNA. qRT-PCR TaqMan primer probe sets against human FXN (Assay ID Hs01075496_m1) and human GAPDH (Assay ID Hs00266705_g1) were used to measure the intended targets. qRT-PCR was run on the ThermoFisher QuantStudio 6 PRO instrument using the manufacturer's recommended cycling conditions.
Data analysis: qPCR data was analyzed using Thermo Fisher Design and Analysis software. Data was exported to Excel and hFXN expression was normalized to hGAPDH expression
A<100 nM; B is 100 nM to 500 nM; C>500 nM.
In the case of `Cc1c(C(=O)N2CCC(C#CC#CC3CCN(CCOCCOCCOCCOCCNC(=O)CCNC(=O)c4nc(NC(=O)CCNC(=O)c5cc(NC(=O)c6nc(NC(=O)CCNC(=O)c7cc(NC(=O)c8nccn8C)cn7C)cn6C)cn5C)cn4C)CC3)CC2)sc2c1C(c1ccc(Cl)cc1)=N[C@@H](CC(=O)NCCN1CCN(C)CC1)c1nnc(C)n1-2` [Compound 134], the EC50 is reported as 100 to 500 nM.
Work on `COCCOCCOCCOCCOCCOCCOCCOCCOCCOCCOCCNC(=O)c1sc2c(c1C)C(c1ccc(Cl)cc1)=N[C@@H](CC(=O)N1CCC(C#CC#CC3CCN(CCOCCOCCOCCOCCNC(=O)CCNC(=O)c4nc(NC(=O)CCNC(=O)c5cc(NC(=O)c6nc(NC(=O)CCNC(=O)c7cc(NC(=O)c8nccn8C)cn7C)cn6C)cn5C)cn4C)CC3)CC1)c1nnc(C)n1-2` [Compound 133] yielded an EC50 of 100 to 500 nM.
`Cc1sc2c(c1C)C(c1ccc(Cl)cc1)=N[C@@H](CC(=O)Nc1ccc(N3CCC(N4CCN(CCOCCOCCOCCOCCNC(=O)CCNC(=O)c5nc(NC(=O)CCNC(=O)c6cc(NC(=O)c7nc(NC(=O)CCNC(=O)c8cc(NC(=O)c9nccn9C)cn8C)cn7C)cn6C)cn5C)CC4)CC3)cc1)c1nnc(C)n1-2` [Compound 10] gave an EC50 of under 100 nM.
`Cc1cc(F)cc(C)c1Oc1ccc(C(C)(C)O)cc1-c1cn(C)c(=O)c2[nH]c(C(=O)N3CCC(C#CC#CC4CCN(CCOCCOCCOCCOCCNC(=O)CCNC(=O)c5nc(NC(=O)CCNC(=O)c6cc(NC(=O)c7nc(NC(=O)CCNC(=O)c8cc(NC(=O)c9nccn9C)cn8C)cn7C)cn6C)cn5C)CC4)CC3)cc12` [Compound 135] gave an EC50 of 100 to 500 nM.
Molecule `Cc1sc2c(c1C)C(c1ccc(Cl)cc1)=N[C@@H](CC(=O)N1CC(C#CC#CC3CN(CCOCCOCCOCCOCCOCCOCCNC(=O)CCNC(=O)c4nc(NC(=O)CCNC(=O)c5cc(NC(=O)c6nc(NC(=O)CCNC(=O)c7cc(NC(=O)c8nccn8C)cn7C)cn6C)cn5C)cn4C)C3)C1)c1nnc(C)n1-2` [Compound 127] has an EC50 of under 100 nM.
With `Cc1sc2c(c1C)C(c1ccc(Cl)cc1)=N[C@@H](CC(=O)N1CCN(CCOCCOCCOCCN3CCN(CCOCCOCCOCCNC(=O)CCNC(=O)c4nc(NC(=O)CCNC(=O)c5cc(NC(=O)c6nc(NC(=O)CCNC(=O)c7cc(NC(=O)c8nccn8C)cn7C)cn6C)cn5C)cn4C)CC3)CC1)c1nnc(C)n1-2` [Compound 27] the EC50 was over 500 nM.
`CCCCCCCC(=O)N(CC#CC#Cc1ccc(NC(=O)C[C@@H]2N=C(c3ccc(Cl)cc3)c3c(sc(C)c3C)-n3c(C)nnc32)cc1)CCOCCOCCOCCOCCOCCNC(=O)CCNC(=O)c1nc(NC(=O)CCNC(=O)c2cc(NC(=O)c3nc(NC(=O)CCNC(=O)c4cc(NC(=O)c5nccn5C)cn4C)cn3C)cn2C)cn1C` [Compound 201] gave an EC50 of over 500 nM.
`Cc1sc2c(c1C)C(c1ccc(Cl)cc1)=N[C@@H](CC(=O)NC1CCN(C3CCN(CCOCCOCCOCCOCCOCCOCCOCCNC(=O)CCNC(=O)c4nc(NC(=O)CCNC(=O)C5=CC(NC(=O)c6nc(NC(=O)CCNC(=O)c7cc(NC(=O)c8nccn8C)cn7C)cn6C)CN5C)cn4C)CC3)CC1)c1nnc(C)n1-2` (some centres unmarked) [Compound 90] was tested, and the EC50 was 100 to 500 nM.
`Cc1sc2c(c1C)C(c1ccc(Cl)cc1)=N[C@@H](CC(=O)Nc1ccc(C#CC3CCN(CCOCCOCCOCCOCCNC(=O)CCNC(=O)c4nc(NC(=O)CCNC(=O)c5cc(NC(=O)c6nc(NC(=O)CCNC(=O)c7cc(NC(=O)c8nccn8C)cn7C)cn6C)cn5C)cn4C)CC3)cc1)c1nnc(C)n1-2` [Compound 13] gave an EC50 of under 100 nM.
In the case of `Cc1sc2c(c1C)C(c1ccc(Cl)cc1)=N[C@@H](CC(=O)N1CCC(C#CC#CC3CCN(CCOCCOCCOCCOCCNC(=O)CCNC(=O)c4nc(NC(=O)CCNC(=O)c5cc(NC(=O)c6nc(NC(=O)CCNC(=O)c7cc(NC(=O)c8nccn8C)cn7C)cn6C)cn5C)cn4C)CC3)CC1)c1nnc(C)n1-2` [Compound 60], the EC50 is reported as under 100 nM.
`Cc1sc2c(c1C)C(c1ccc(Cl)cc1)=N[C@@H](CC(=O)N1CCC(N3CCN(CCOCCOCCOCCOCCC(=O)NCCCN(CCCNC(=O)CCNC(=O)c4nc(NC(=O)CCNC(=O)c5cc(NC(=O)c6nc(NC(=O)CCNC(=O)c7cc(NC(=O)c8nccn8C)cn7C)cn6C)cn5C)cn4C)CC(F)(F)F)CC3)CC1)c1nnc(C)n1-2` [Compound 69] showed an EC50 of under 100 nM.
Molecule `Cc1sc2c(c1C)C(c1ccc(Cl)cc1)=N[C@@H](CC(=O)N[C@H]1CC[C@@H](N(C)CCOCCOCCOCCOCCOCCOCCOCCOCCNC(=O)CCNC(=O)c3nc(NC(=O)CCNC(=O)c4cc(NC(=O)c5nc(NC(=O)CCNC(=O)c6cc(NC(=O)c7nccn7C)cn6C)cn5C)cn4C)cn3C)CC1)c1nnc(C)n1-2` [Compound 87] has an EC50 of under 100 nM.
`Cc1sc2c(c1C)C(c1ccc(Cl)cc1)=N[C@@H](CC(=O)NC1CCN(CCOCCOCCOCCN3CCN(CC4CCN(CCOCCNC(=O)CCNC(=O)c5nc(NC(=O)CCNC(=O)c6cc(NC(=O)c7nc(NC(=O)CCNC(=O)c8cc(NC(=O)c9nccn9C)cn8C)cn7C)cn6C)cn5C)CC4)CC3)CC1)c1nnc(C)n1-2` [Compound 33] showed an EC50 of over 500 nM.
In the case of `COCCOCCOCCOCCOCCOCCOCCOCCOCCOCCOCCC(=O)Nc1ccc(C2=N[C@@H](CC(=O)N3CCC(C#CC#CC4CCN(CCOCCOCCOCCOCCNC(=O)CCNC(=O)c5nc(NC(=O)CCNC(=O)c6cc(NC(=O)c7nc(NC(=O)CCNC(=O)c8cc(NC(=O)c9nccn9C)cn8C)cn7C)cn6C)cn5C)CC4)CC3)c3nnc(C)n3-c3sc(C)c(C)c32)cc1` [Compound 120], the EC50 is reported as 100 to 500 nM.
For `Cc1sc2c(c1C)C(c1ccc(Cl)cc1)=N[C@@H](CC(=O)NC1CCN(CCOCCOCCOCCC(=O)NC3(C(=O)NCCOCCOCCOCCOCCNC(=O)CCNC(=O)c4nc(NC(=O)CCNC(=O)c5cc(NC(=O)c6nc(NC(=O)CCNC(=O)c7cc(NC(=O)c8nccn8C)cn7C)cn6C)cn5C)cn4C)CCNCC3)CC1)c1nnc(C)n1-2` [Compound 71], the EC50 was 100 to 500 nM.
Work on `Cc1cc(F)cc(C)c1Oc1ccc(C(C)(C)O)cc1-c1cn(C)c(=O)c2[nH]c(C(=O)Nc3ccc(OCCOCCOCCOCCOCCOCCOCCOCCOCCNC(=O)c4cc(NC(=O)c5nc(NC(=O)c6cc(NC(=O)c7ccc8nc(-c9nccn9C)[nH]c8c7)cn6C)cn5C)cn4C)cc3)cc12` [Compound 215, N-[5-({2-[(5-{[26-(4-{4-[2-(4-fluoro-2,6-dimethylphenoxy)-5-(2-hydroxypropan-2-yl)phenyl]-6-methyl-7-oxo-1H-pyrrolo[2,3-c]pyridine-2-amido}phenoxy)-3,6,9,12,15,18,21,24-octaoxahexacosan-1-yl]carbamoyl}-1-methylpyrrol-3-yl)carbamoyl]-1-methylimidazol-4-yl]carbamoyl)-1-methylpyrrol-3-yl]-2-(1-methylimidazol-2-yl)-3H-1,3-benzodiazole-5-carboxamide] yielded an EC50 of over 500 nM.
`Cc1sc2c(c1C)C(c1ccc(Cl)cc1)=N[C@@H](CC(=O)Nc1ccc(N3CCC(N4CCN(CCOCCOCCOCCOCCOCCNC(=O)CCNC(=O)c5nc(NC(=O)CCNC(=O)c6cc(NC(=O)c7nc(NC(=O)CCNC(=O)c8cc(NC(=O)c9nccn9C)cn8C)cn7C)cn6C)cn5C)CC4)CC3)cc1)c1nnc(C)n1-2` [Compound 9] gave an EC50 of under 100 nM.
`Cc1sc2c(c1C)C(c1ccc(Cl)cc1)=N[C@@H](CC(=O)N1CCN(CC3CCN(CCOCCOCCOCCOCCOCCN4CCC(CN5CCN(C(=O)CCNC(=O)c6nc(NC(=O)CCNC(=O)c7cc(NC(=O)c8nc(NC(=O)CCNC(=O)c9cc(NC(=O)c%10nccn%10C)cn9C)cn8C)cn7C)cn6C)CC5)CC4)CC3)CC1)c1nnc(C)n1-2` [Compound 18] gave an EC50 of over 500 nM.
For `COc1ccc2c(c1)C(c1ccc(Cl)cc1)=N[C@@H](CC(=O)NC1CCN(CCOCCOCCOCCN3CCN(CC4CCN(CCOCCNC(=O)CCNC(=O)c5nc(NC(=O)CCNC(=O)c6cc(NC(=O)c7nc(NC(=O)CCNC(=O)c8cc(NC(=O)c9nccn9C)cn8C)cn7C)cn6C)cn5C)CC4)CC3)CC1)c1nnc(C)n1-2` [Compound 34], the EC50 was over 500 nM.
Molecule `Cc1sc2c(c1C)C(c1ccc(Cl)cc1)=N[C@@H](CC(=O)N1CCC(N3CCN(CCOCCOCCOCCOCCOCCOCCNC(=O)CCNC(=O)c4nc(NC(=O)CCNC(=O)c5cc(NC(=O)c6nc(NC(=O)CCNC(=O)c7cc(NC(=O)c8nccn8C)cn7C)cn6C)cn5C)cn4C)CC3)CC1)c1nnc(C)n1-2` [Compound 51] has an EC50 of 100 to 500 nM.
Work on `Cc1sc2c(c1C)C(c1ccc(Cl)cc1)=N[C@@H](CC(=O)N1CC3(CCN(CCOCCOCCOCCN4CCN(CCOCCOCCOCCNC(=O)CCNC(=O)c5nc(NC(=O)CCNC(=O)c6cc(NC(=O)c7nc(NC(=O)CCNC(=O)c8cc(NC(=O)c9nccn9C)cn8C)cn7C)cn6C)cn5C)CC4)CC3)C1)c1nnc(C)n1-2` [Compound 25] yielded an EC50 of over 500 nM.
`Cc1sc2c(c1C)C(c1ccc(Cl)cc1)=N[C@@H](CC(=O)NC1CCN(CCOCCOCCOCCOCCOCCN3CCN(CCCCCNC(=O)CCNC(=O)c4nc(NC(=O)CCNC(=O)c5cc(NC(=O)c6nc(NC(=O)CCNC(=O)c7cc(NC(=O)c8nccn8C)cn7C)cn6C)cn5C)cn4C)CC3)CC1)c1nnc(C)n1-2` [Compound 109] was tested, and the EC50 was 100 to 500 nM.
For `Cc1cc(F)cc(C)c1Oc1ccc(C(C)(C)O)cc1-c1cn(C)c(=O)c2[nH]c(C(=O)NC3CCN(CC#CC#CC4CCN(CCOCCOCCOCCOCCOCCOCCOCCNC(=O)CCNC(=O)c5nc(NC(=O)CCNC(=O)c6cc(NC(=O)c7nc(NC(=O)CCNC(=O)c8cc(NC(=O)c9nccn9C)cn8C)cn7C)cn6C)cn5C)CC4)CC3)cc12` [Compound 175], the EC50 was under 100 nM.
